Measured values reported in patent US5945430A, “Aminooxyamide tricyclic inhibitors of farnesyl-protein transferase” (Schering Corporation, priority 1998, dated 1999).

Assays:
[1] = target: T1, H-ras FPT (Ras-CVLS farnesylation by partially purified rat brain farnesyl protein transferase (FPT)) (Rattus norvegicus, UniProt Q02293+Q04631); assay: FPT IC50 (inhibition of farnesyl protein transferase, in vitro enzyme assay); format: biochemical
T1 construct: partially purified rat brain farnesyl protein transferase (FPT); from tissue; host or cells: rat brain, partially purified

[2] = test system: Ras processing in COS cells; assay: COS IC50, cell-based assay: COS cells activity inhibition of Ras processing
Method: 2. Cell-based assay. COS IC50 values refer to the COS cells activity inhibition of Ras processing, are determined by the methods disclosed in […] or WO 95/10516.

Compound	IC50 [1] [nM]	IC50 [2] [nM]
O=C(NOCC(=O)N1CCC([C@H]2c3ncc(Br)cc3CCc3cc(Cl)cc(Br)c32)CC1)c1ccccc1 [Example 1]	27	
O=C(CO/N=C/c1cc[n+]([O-])cc1)N1CCC([C@H]2c3ncc(Br)cc3CCc3cc(Cl)cc(Br)c32)CC1 [Example 6]		690
NOCC(=O)N1CCC([C@H]2c3ncc(Br)cc3CCc3cc(Cl)cc(Br)c32)CC1 [Example 15, (+)-1-[(aminooxy)acetyl]-4-(3,10-dibromo-8-chloro-6,11-dihydro-5H-benzo[5,6]cyclohepta[1,2-b]pyridin-11(R)-yl)piperidine]	32	
